Data from patent US20260240798A1, “SOLID FORMS OF RXFP1 MODULATORS” (ASTRAZENECA AB, priority 2022, published 2026).
Converted amounts (≈) assume the structure as drawn. Blank lines part the entries; values can stand above or below the compound they belong to.

Assays:
human RXFP1 [1] = target: T1, human RXFP1 (Homo sapiens, UniProt Q9HBX9); test: Human RXFP1 Phospho-ERK Assay (Test H); type: cell-based; details: HEK293s cells stably transfected with human RXFP1; read-out: Test H phospo-ERK assay EC50
T1 construct: expressed in transfected cells; host or cells: HEK293s cells, vector pIRESneo3
T1 sequence (Q9HBX9 1-757): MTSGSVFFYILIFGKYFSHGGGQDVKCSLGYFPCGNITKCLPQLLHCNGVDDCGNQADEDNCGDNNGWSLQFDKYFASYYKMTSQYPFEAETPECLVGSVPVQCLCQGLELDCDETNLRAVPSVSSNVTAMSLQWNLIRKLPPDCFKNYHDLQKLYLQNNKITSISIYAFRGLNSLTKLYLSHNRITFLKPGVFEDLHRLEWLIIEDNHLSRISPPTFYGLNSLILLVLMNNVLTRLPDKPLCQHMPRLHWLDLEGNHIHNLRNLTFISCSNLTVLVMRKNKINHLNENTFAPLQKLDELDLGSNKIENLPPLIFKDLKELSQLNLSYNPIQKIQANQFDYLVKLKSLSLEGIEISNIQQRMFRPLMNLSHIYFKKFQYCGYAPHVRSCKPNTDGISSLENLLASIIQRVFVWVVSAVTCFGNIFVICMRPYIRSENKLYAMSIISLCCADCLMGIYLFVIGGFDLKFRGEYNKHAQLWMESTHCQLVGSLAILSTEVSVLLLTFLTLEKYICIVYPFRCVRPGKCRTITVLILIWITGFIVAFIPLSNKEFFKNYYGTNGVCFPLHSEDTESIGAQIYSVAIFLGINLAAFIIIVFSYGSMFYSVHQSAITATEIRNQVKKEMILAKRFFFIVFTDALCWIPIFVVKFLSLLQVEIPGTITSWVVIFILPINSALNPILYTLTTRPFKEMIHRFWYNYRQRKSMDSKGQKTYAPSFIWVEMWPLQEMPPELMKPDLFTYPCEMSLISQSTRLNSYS
Source text: (§1) Cells: HEK293s cells stably transfected with human RXFP1 in pIRESneo3 was employed.

human RXFP1 [2] = target: T1, human RXFP1; test: Human RXFP1 cGMP Production Assay (Test G); type: cell-based; details: HEK293s cells stably transfected with human RXFP1
Method: Human RXFP1 cGMP Production Assay (Test G)
To profile compounds for RXFP1 agonist activity with respect to cGMP production, the Green GENIe cGMP Assay (Montana Molecular; catalogue number D800G) was employed. […] Fluorescence is reduced when cGMP is bound to the biosensor.
as §1
• 2. […] Cells and transduction mastermix were mixed in proportions 30 μL cells and 20 μL mastermix for a single well. • 6. […] Plate was incubated in the dark at 37° C., 5% CO2 for 24 h.
• 8. Medium was removed from plates using a Bluewasher (BluCatBio). • 9. 20 μL assay buffer was added with a Multidrop Combi (ThermoFisher). • 10. Plate was incubated in the dark at room temperature for 30 min prior to assaying. • 11. Plates were assayed using a FLIPR Tetra (Molecular Devices): 10 μL compound diluted with assay buffer was added to each well by the FLIPR Tetra and measuring green fluorescence over time for up to 3 h.
After subtraction of background fluorescence (before addition of compounds), area under curve values from 0 to 90 min after compound addition was used for calculation of responses.

[3] = Solubility of crystalline Form A of Compound (I) in pH 1.2 SGF, shake-flask (Test J); type: physicochemical; details: simulated gastric fluid pH 1.2 (SGF), thermodynamic from solid, 37° C., 24 h agitation
Method: Crystalline solubility in simulated gastric fluid pH 1.2 (SGF) was measured using a miniaturized shake-flask method (24 h agitation at 37° C.).
The samples were agitated at 37° C. for 24 hours in an Eppendorf shaker, agitation speed 1000 rpm. The samples were then centrifuged at 10000 RPM for 15 minutes, 37° C. Approximately 500 μL of the supernatant was withdrawn with automatic pipette to a new vial and centrifuged again for 15 min at 10000 rpm, 37° C. Then from the second centrifugation, samples were taken with automatic pipette to final dilution. pH was measured in the equilibrated remaining sample solution after the second centrifugation. XRPD was used to confirm that no form change had occurred.

[4] = cited from earlier work
[5] = Solubility (pH 7.4) (Test F); type: physicochemical; details: pH 7.4, aqueous buffer
Method: Solubility (pH 7.4) (Test F)
The assay was conducted according to the Solubility Assay described in pages 164-167 of Wernevik, J. et al., “A Fully Integrated Assay Panel for Early Drug Metabolism and Pharmacokinetics Profiling”, Assay and Drug Development Technologies, 2020, 18(4), 157-179. Where the assay was run multiple times for the same compound, the arithmetic mean is reported.

[6] = Solubility of amorphous Compound (I) in pH 1.2 SGF, turbidimetric method (Test I); type: physicochemical; details: 37° C.
Method: 10 μL of the stock solution was rapidly injected into 990 μL of stabilizer solution containing 0.2% w/w PVPK30 and 0.2% w/w Pluronic F127 and 0.25 mM SDS aqueous solution under a few seconds of ultrasonic treatment to make a 1 mM amorphous nanosuspension. This formulation is further diluted to 0.25 mM with purified water.
The bulk concentration in equilibrium with amorphous particles is determined at 37° C. by a turbidimetric method (described in Lindfors et. al., Langmuir, 2006, 22(3), 911-916). Small volumes of drug suspension are successively added directly to a fluorescence cuvette containing 2000 μL simulated gastric fluid pH 1.2 (SGF) and are then mixed to give the desired concentrations. The light scattering intensity at 700 nm is recorded at a scattering angle of 90° as a function of total drug concentration. As a light scattering setup, a Perkin-Elmer LS 55 Luminescence Spectrometer is used, setting both the emission and excitation wavelengths to 700 nm. Slit excitation is set to 2.5 nm and slit emission is set to 5 nm. Particles are allowed to dissolve for at least 30 seconds prior to measurements starting. Data are then collected for 1 minute and a mean light scattering intensity is calculated. The solubility examination was performed within 45 min of the formation of the amorphous nanosuspension.
At low concentrations the particles dissolve, while at concentrations above the solubility, the particles remain suspended, leading to an almost linear increase in light scattering intensity as a function of total concentration.

Human Plasma Protein = Human Plasma Protein Binding (Test B); type: in vitro ADME; details: fraction unbound (fu)
Method: Human Plasma Protein Binding (Test B)
The assay was conducted according to the Human Plasma Protein Binding Assay described in pages 167-170 of Wernevik, J. et al., “A Fully Integrated Assay Panel for Early Drug Metabolism and Pharmacokinetics Profiling”, Assay and Drug Development Technologies, 2020, 18(4), 157-179. Data are reported in Table 1 as fraction unbound (fu) (% free). Where the assay was run multiple times for the same compound, the arithmetic mean is reported.

EC50 (human RXFP1 [1]): 0.038 nM | EC50 (human RXFP1 [2]): 0.085 nM
Compound: relaxin2

solubility at 24 h [3]: 0.4 µM (≈ 0.218 µg/mL)
Compound: COc1cc(F)c(O[C@H]2CC[C@@](C)(C(=O)O)CC2)cc1C(=O)N[C@@H]1[C@H]2CC[C@H](C2)[C@@H]1C(=O)NCC1(C)CCC1 [Form A of Compound (I), (1S,4s)-4-(2-Fluoro-4-methoxy-5-(((1S,2R,3S,4R)-3-(((1-methylcyclobutyl)methyl)carbamoyl)bicyclo[2.2.1]heptan-2-yl)carbamoyl)phenoxy)-1-methylcyclohexane-1-carboxylic acid]

Compound: serelaxin
blood pressure drop ([4]; approximately one third of the patients, intravenous): > 40 mm Hg | markers of cardiac, renal and hepatic damage and congestion ([4]; hospitalized patients, continuous intravenous administration): improved | clearance from the patients' circulation ([4]; patients): rapid clearance

solubility [5]: > 500 µM | solubility ([6]; simulated gastric fluid pH 1.2 (SGF), simulated gastric fluid, kinetic from dmso stock, amorphous nanosuspension, extrapolation of light scattering to zero intensity): 8 µM (≈ 4.36 µg/mL) | Mean light scattering intensity ([6]; total concentration 1.2 uM): 0.16 a.u. | Mean light scattering intensity ([6]; total concentration 2.5 uM): 0.28 a.u. | Mean light scattering intensity ([6]; total concentration 3.7 uM): 0.33 a.u. | Mean light scattering intensity ([6]; total concentration 6.1 uM): 0.33 a.u. | Mean light scattering intensity ([6]; total concentration 8.5 uM): 1.71 a.u. | Mean light scattering intensity ([6]; total concentration 10.8 uM): 4.94 a.u. | Mean light scattering intensity ([6]; total concentration 13.0 uM): 8.19 a.u. | Mean light scattering intensity ([6]; total concentration 15.3 uM): 11.77 a.u. | Mean light scattering intensity ([6]; total concentration 17.4 uM): 15.33 a.u. | Mean light scattering intensity ([6]; total concentration 19.6 uM): 18.47 a.u. | Test B Human Plasma Protein Binding (% free) (Human Plasma Protein): 4.3 % free
Compound: COc1cc(F)c(O[C@H]2CC[C@@](C)(C(=O)O)CC2)cc1C(=O)N[C@@H]1[C@H]2CC[C@H](C2)[C@@H]1C(=O)NCC1(C)CCC1 [Compound (I), (1S,4s)-4-(2-fluoro-4-methoxy-5-(((1S,2R,3S,4R)-3-(((1-methylcyclobutyl)methyl)carbamoyl)bicyclo[2.2.1]heptan-2-yl)carbamoyl)phenoxy)-1-methylcyclohexane-1-carboxylic acid]
